Measured values taken from PubChem BioAssay AID248 (DTP/NCI, 2004).
Toxic doses and inconclusive results are not listed. No stated cut-off is given here; in the data, active means T/C of 150% or more; inactive means T/C below 125%.

Test system: L1210 leukemia ip in BDF1 mice, survival T/C
Assay: NCI In Vivo Anticancer Drug Screen. Data for tumor model L1210 Leukemia (intraperitoneal) in B6D2F1 (BDF1) mice
Details: endpoint: mean survival time, higher = longer survival
In short: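 Each compound was tested against a transplantable tumor grown in mice. The endpoint was survival, with treated animals benchmarked against vehicle controls as a simple ratio.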

[1] = dose: 44.0 mg/kg/injection, schedule: Q01DX001 (ip), vehicle: other
[2] = dose: 100.0 mg/kg/injection, schedule: Q01DX001 (ip), vehicle: other
[3] = dose: 100.0 mg/kg/injection, schedule: Q01DX001 (ip), vehicle: saline
[4] = dose: 200.0 mg/kg/injection, schedule: Q01DX001 (ip), vehicle: saline
[5] = dose: 400.0 mg/kg/injection, schedule: Q01DX001 (ip), vehicle: saline
[6] = dose: 100.0 mg/kg/injection, schedule: Q04DX002 (ip), vehicle: Klucel (hydroxypropylcellulose) (HPC)
[7] = dose: 200.0 mg/kg/injection, schedule: Q04DX002 (ip), vehicle: Klucel (hydroxypropylcellulose) (HPC)
[8] = dose: 400.0 mg/kg/injection, schedule: Q04DX002 (ip), vehicle: Klucel (hydroxypropylcellulose) (HPC)
[9] = dose: 100.0 mg/kg/injection, schedule: Q01DX009 (ip), vehicle: Klucel (hydroxypropylcellulose) (HPC)
[10] = dose: 200.0 mg/kg/injection, schedule: Q01DX009 (ip), vehicle: Klucel (hydroxypropylcellulose) (HPC)
[11] = dose: 400.0 mg/kg/injection, schedule: Q01DX009 (ip), vehicle: Klucel (hydroxypropylcellulose) (HPC)
[12] = dose: 50.0 mg/kg/injection, schedule: Q01DX001 (ip), vehicle: Klucel (hydroxypropylcellulose) (HPC)
[13] = dose: 100.0 mg/kg/injection, schedule: Q01DX001 (ip), vehicle: Klucel (hydroxypropylcellulose) (HPC)
[14] = dose: 200.0 mg/kg/injection, schedule: Q01DX001 (ip), vehicle: Klucel (hydroxypropylcellulose) (HPC)

Measured: T/C

C[NH-].C[NH-].[I][Pt+2][I]
inactive: dose: 12.0 mg/kg/injection, schedule: Q04DX003 (ip), vehicle: other 118 % of control | dose: 17.0 mg/kg/injection, schedule: Q04DX003 (ip), vehicle: other 113 % of control | dose: 18.0 mg/kg/injection, schedule: Q04DX003 (ip), vehicle: water 102 % of control | dose: 25.0 mg/kg/injection, schedule: Q04DX003 (ip), vehicle: other 108 % of control | dose: 25.0 mg/kg/injection, schedule: Q04DX003 (ip), vehicle: water 102 % of control | dose: 37.0 mg/kg/injection, schedule: Q04DX003 (ip), vehicle: other 111 % of control | dose: 37.0 mg/kg/injection, schedule: Q04DX003 (ip), vehicle: water 115 % of control | [1] 113 % of control | dose: 50.0 mg/kg/injection, schedule: Q04DX003 (ip), vehicle: other 110 % of control | dose: 67.0 mg/kg/injection, schedule: Q01DX001 (ip), vehicle: other 114 % of control | [2] 120 % of control

COP(=S)(OC)N1CC1
inactive: dose: 11.1 mg/kg/injection, schedule: Q01DX Z (ip), vehicle: saline 108 % of control | dose: 16.6 mg/kg/injection, schedule: Q01DX Z (ip), vehicle: saline 100 % of control | dose: 25.0 mg/kg/injection, schedule: Q01DX Z (ip), vehicle: saline 100 % of control

O=C1c2c(ccc3ccccc23)CCC1CN1CCCCC1 (stereo unspecified)
inactive: [3] 102 % of control | [4] 108 % of control | [5] 112 % of control

CCC(=O)NC1=CC(=O)c2ccccc2C1=O
inactive: dose: 75.0 mg/kg/injection, schedule: Q01DX001 (ip), vehicle: carboxymethylcellulose (CMC) 98 % of control | dose: 150.0 mg/kg/injection, schedule: Q01DX001 (ip), vehicle: carboxymethylcellulose (CMC) 97 % of control | dose: 300.0 mg/kg/injection, schedule: Q01DX001 (ip), vehicle: carboxymethylcellulose (CMC) 95 % of control

O=[N+]([O-])c1ccc2c(c1)-c1ccccc1/C2=C1\c2ccccc2-c2cc([N+](=O)[O-])ccc21
inactive: dose: 100.0 mg/kg/injection, schedule: Q01DX005 (ip), vehicle: Klucel (hydroxypropylcellulose) (HPC) 105 % of control | [6] 90 % of control | dose: 200.0 mg/kg/injection, schedule: Q01DX005 (ip), vehicle: Klucel (hydroxypropylcellulose) (HPC) 91 % of control | [7] 104 % of control | dose: 400.0 mg/kg/injection, schedule: Q01DX005 (ip), vehicle: Klucel (hydroxypropylcellulose) (HPC) 91 % of control | [8] 96 % of control

NN1CCCC1C(=O)O (stereo unspecified)
inactive: dose: 75.0 mg/kg/injection, schedule: Q01DX001 (ip), vehicle: saline 97 % of control | dose: 150.0 mg/kg/injection, schedule: Q01DX001 (ip), vehicle: saline 92 % of control

COC(=O)C(N)=O
inactive: dose: 100.0 mg/kg/injection, schedule: Q01DX001 (ip), vehicle: steriod suspending solution 115 % of control | [6] 100 % of control | dose: 200.0 mg/kg/injection, schedule: Q01DX001 (ip), vehicle: steriod suspending solution 121 % of control | [7] 106 % of control | dose: 400.0 mg/kg/injection, schedule: Q01DX001 (ip), vehicle: steriod suspending solution 106 % of control | [8] 106 % of control

CCOc1cccc(CCC(=O)O)c1
inactive: dose: 100.0 mg/kg/injection, schedule: Q04DX003 (ip), vehicle: gum acacia 105 % of control | dose: 200.0 mg/kg/injection, schedule: Q04DX003 (ip), vehicle: gum acacia 96 % of control | dose: 400.0 mg/kg/injection, schedule: Q04DX003 (ip), vehicle: gum acacia 93 % of control

Cc1ccccc1NC(=O)Nc1ccc(Nc2ccccc2)cc1
inactive: [9] 97 % of control | [10] 91 % of control | [11] 100 % of control

O=C(CCBr)Nc1ccc(Cl)cc1C(=O)c1ccccc1
inactive: [9] 102 % of control | [10] 97 % of control | [11] 100 % of control

CCOC(CSC)OCC
inactive: dose: 100.0 mg/kg/injection, schedule: Q01DX009 (sc), vehicle: olive oil, sesame oil, peanut oil 99 % of control | dose: 100.0 mg/kg/injection, schedule: Q04DX003 (sc), vehicle: olive oil, sesame oil, peanut oil 102 % of control | dose: 200.0 mg/kg/injection, schedule: Q01DX009 (sc), vehicle: olive oil, sesame oil, peanut oil 94 % of control | dose: 200.0 mg/kg/injection, schedule: Q04DX003 (sc), vehicle: olive oil, sesame oil, peanut oil 96 % of control | dose: 400.0 mg/kg/injection, schedule: Q01DX009 (sc), vehicle: olive oil, sesame oil, peanut oil 91 % of control | dose: 400.0 mg/kg/injection, schedule: Q04DX003 (sc), vehicle: olive oil, sesame oil, peanut oil 94 % of control

COC(=O)c1ccccc1-c1ccccc1C(=O)O
inactive: [1] 101 % of control | dose: 66.0 mg/kg/injection, schedule: Q01DX001 (ip), vehicle: other 106 % of control | [2] 93 % of control | dose: 150.0 mg/kg/injection, schedule: Q01DX001 (ip), vehicle: other 95 % of control | dose: 200.0 mg/kg/injection, schedule: Q01DX001 (ip), vehicle: other 98 % of control | dose: 400.0 mg/kg/injection, schedule: Q01DX001 (ip), vehicle: other 98 % of control

NC(=O)N1CCCCC1
inactive: [3] 102 % of control | [4] 98 % of control | [5] 102 % of control

COc1cc(NC(=O)O/N=C/c2ccccn2)cc(OC)c1OC
inactive: dose: 100.0 mg/kg/injection, schedule: Q01DX009 (ip), vehicle: saline with Tween-80 91 % of control | dose: 200.0 mg/kg/injection, schedule: Q01DX009 (ip), vehicle: saline with Tween-80 92 % of control

O=C1C=C(Nc2ccccc2)C(=O)C=C1Nc1ccccc1
inactive: dose: 100.0 mg/kg/injection, schedule: Q04DX003 (ip), vehicle: saline with Tween-80 86 % of control | dose: 200.0 mg/kg/injection, schedule: Q04DX003 (ip), vehicle: saline with Tween-80 86 % of control | dose: 400.0 mg/kg/injection, schedule: Q04DX003 (ip), vehicle: saline with Tween-80 86 % of control

C/C=C/CC1(Cc2ccccc2)C(=O)NC(=S)NC1=O
inactive: dose: 10.0 mg/kg/injection, schedule: Q01DX001 (ip), vehicle: saline 102 % of control | dose: 20.0 mg/kg/injection, schedule: Q01DX001 (ip), vehicle: saline 111 % of control

CC(=O)Nc1c2ccccc2nc2c1c(C)c(C)c1ccccc12
inactive: [12] 87 % of control | [13] 89 % of control | [14] 94 % of control | dose: 400.0 mg/kg/injection, schedule: Q01DX001 (ip), vehicle: Klucel (hydroxypropylcellulose) (HPC) 91 % of control

COc1ccc(-n2c(O)c(N=Nc3ccccc3OC)c(=O)n(-c3ccccc3)c2=S)cc1
inactive: [12] 94 % of control | [13] 92 % of control | [14] 92 % of control

CC1(C)OC(CCl)C2OC(C)(C)OC(CCl)C2O1 (stereo unspecified)
inactive: [3] 93 % of control | [4] 88 % of control | [5] 104 % of control

O=C(C#Cc1ccccc1)OCC#Cc1ccccc1
inactive: [3] 102 % of control | [4] 96 % of control | [5] 94 % of control

CC(C)(C)N(CCC(=O)c1ccccc1)C(=O)c1ccccc1
inactive: [9] 98 % of control | [10] 102 % of control | [11] 88 % of control
